Read-outs that look alike come from different tables or passages of the source.
Experiments:
[1] = tested on: MDA-MB-231 (human breast cancer); experiment: MTT cytotoxicity assay, MDA-MB-231; type: cell-based; details: MDA-MB-231 cells, 50% cell growth inhibition after 72 h of drug exposure
Method: (§1) The cytotoxic activities of target compounds were evaluated against HT-29 (human colon cancer), MDA-MB-231 (human breast cancer), U87MG (human glioblastoma), H460 (human lung cancer), A549 (non-small-cell lung adenocarcinoma), HL-60 (human leukemic) cancer cell lines and one normal cell line WI-38 (human fetal lung fibroblasts) together with references DHA and cisplatin by a MTT assay.
(§2) The cytotoxic activities of compounds 3a–h and 6a–j were evaluated with the HT-29, MDA-MB-231, U87MG, H460, A549, HL-60 cancer cell lines and one normal cell line, WI-38, by the standard MTT assay in vitro [20], with DHA as the positive control. The cell lines were cultured in minimum essential medium (MEM) supplement with 10% fetal bovine serum (FBS). Approximately 4 × 10^3 cells, suspended in MEM medium, were plated on to each well of a 96-well plate and incubated in 5% CO2 at 37 °C for 24 h. The test compounds at indicated final concentrations were added to the culture medium and the cell cultures were continued for 72 h. Fresh MTT was added to each well at a terminal concentration of 5 μg/mL and incubated with cells at 37 °C for 4 h. The formazan crystals were dissolved in 100 μL DMSO each well, and the absorbency at 492 nm (for absorbance of MTT formazan) and 630 nm (for the reference wavelength) was measured with the ELISA reader. All of the compounds were tested twice in each of the cell lines. The results expressed as IC50 (inhibitory concentration 50%) were the averages of two determinations and calculated using the Bacus Laboratories Incorporated Slide Scanner (Bliss) software.

[2] = tested on: HT-29 (human colon cancer); experiment: MTT cytotoxicity assay, HT-29; type: cell-based; details: HT-29 cells, 50% cell growth inhibition after 72 h of drug exposure, read-out: IC50(μM) HT29
Method: as §1, §2

[3] = tested on: U87MG (human glioblastoma); experiment: MTT cytotoxicity assay, U87MG; type: cell-based; details: for IC50: U87MG cells, 50% cell growth inhibition after 72 h of drug exposure, MTT
Method: as §1, §2

H460 (human lung cancer) = experiment: MTT cytotoxicity assay, H460; type: cell-based; details: for IC50: H460 cells, 50% cell growth inhibition after 72 h of drug exposure, MTT
Method: as §1, §2

[4] = tested on: A549 (non-small-cell lung adenocarcinoma); experiment: MTT cytotoxicity assay, A549; type: cell-based, human; details: A549 cells, 50% cell growth inhibition after 72 h of drug exposure
Method: as §1, §2

HL-60 (human leukemic) = experiment: MTT cytotoxicity assay, HL-60; type: cell-based; details: for IC50: HL-60 cells, 50% cell growth inhibition after 72 h of drug exposure, MTT
Method: as §1, §2

[5] = tested on: WI-38 (human fetal lung fibroblasts); experiment: MTT cytotoxicity assay, normal cell line WI-38; type: cell-based; details: normal WI-38 cells, 50% cell growth inhibition after 72 h of drug exposure, read-out: IC50(μM) WI38
Method: as §1, §2

SMILES | IC50 [1] | IC50 [2] | IC50 [3] | IC50 (H460 (human lung cancer)) | IC50 [4] | IC50 (HL-60 (human leukemic)) | IC50 [5] | IC50 ([1]; Homo sapiens) | IC50 ([2]; Homo sapiens) | IC50 ([3]; Homo sapiens, U-87 MG) | IC50 (H460 (human lung cancer); Homo sapiens, NCI-H460) | IC50 ([4]; Homo sapiens) | IC50 (HL-60 (human leukemic); Homo sapiens) | IC50 ([5]; Homo sapiens) | melting point | activity fold higher than that of benzamide analog 6c ([3]; U87MG, versus 6c) | activity fold higher than that of benzamide analog 6c (H460 (human lung cancer); H460, versus 6c) | activity fold higher than that of benzamide analog 6c (HL-60 (human leukemic); HL-60, versus 6c) | selectivity index (IC50 normal cell/IC50 cancer cell) (HL-60 (human leukemic); WI-38 normal cells versus HL-60)
N.N.[Cl][Pt][Cl] [Cisplatin, cisplatin, reference compound] | 6.82 µM | 10.3 µM | 8.21 µM | 7.55 µM | 4.31 µM | 9.28 µM | 51.2 µM | – | – | – | – | – | – | – | – | – | – | – | –
C[C@@H]1CC[C@H]2[C@@H](C)C(OCCOc3ccc(/C=C/S(=O)(=O)Nc4ccccc4)cc3)O[C@@H]3O[C@@]4(C)CC[C@@H]1[C@]32OO4 (stereo partly drawn) [Compound 3a, (E)-2-(4-(2-(10β-Dihydroartemisinoxy)ethoxy)phenyl)-N-phenylethenesulfonamide] | – | – | – | – | – | – | – | 2 µM | 0.68 µM | 3.97 µM | 5.38 µM | 2.16 µM | 1.25 µM | 16.8 µM | 136 to 138 °C | – | – | – | –
C[C@@H]1CC[C@H]2[C@@H](C)C(OCCOc3ccc(/C=C/S(=O)(=O)Nc4cccc(Cl)c4)cc3)O[C@@H]3O[C@@]4(C)CC[C@@H]1[C@]32OO4 (stereo partly drawn) [Compound 3b, (E)-2-(4-(2-(10β-Dihydroartemisinoxy)ethoxy)phenyl)-N-(3-chlorophenyl)ethenesulfonamide] | – | – | – | – | – | – | – | 1.61 µM | 0.78 µM | 3.51 µM | 7.32 µM | 4.48 µM | 0.75 µM | 23.9 µM | 137 to 138 °C | – | – | – | –
C[C@@H]1CC[C@H]2[C@@H](C)C(OCCOc3ccc(/C=C/S(=O)(=O)Nc4ccc(OC(F)(F)F)cc4)cc3)O[C@@H]3O[C@@]4(C)CC[C@@H]1[C@]32OO4 (stereo partly drawn) [Compound 3c, (E)-2-(4-(2-(10β-Dihydroartemisinoxy)ethoxy)phenyl)-N-(4-trifluoromethoxyphenyl)ethenesulfonamide] | – | – | – | – | – | – | – | 0.39 µM | 0.2 µM | 1.59 µM | 0.97 µM | 2.11 µM | 0.05 µM | 37.5 µM | – | 2 fold | 3 fold | 2 fold | 750
Cc1ccc(F)c(NS(=O)(=O)/C=C/c2ccc(OCCOC3O[C@@H]4O[C@@]5(C)CC[C@H]6[C@H](C)CC[C@@H]([C@H]3C)[C@@]46OO5)cc2)c1 (stereo partly drawn) [Compound 3d, (E)-2-(4-(2-(10β-Dihydroartemisinoxy)ethoxy)phenyl)-N-(2-fluoro-5-methylphenyl)ethenesulfonamide] | – | – | – | – | – | – | – | 1.27 µM | 1.78 µM | 5.71 µM | 4.29 µM | 3.64 µM | 0.84 µM | 20.5 µM | 138 to 140 °C | – | – | – | –
Cc1ccccc1NS(=O)(=O)/C=C/c1ccc(OCCOC2O[C@@H]3O[C@@]4(C)CC[C@H]5[C@H](C)CC[C@@H]([C@H]2C)[C@@]35OO4)cc1 (stereo partly drawn) [Compound 3e, (E)-2-(4-(2-(10β-Dihydroartemisinoxy)ethoxy)phenyl)-N-(2-methylphenyl)ethenesulfonamide] | – | – | – | – | – | – | – | 1.64 µM | 0.86 µM | 2.73 µM | 1.58 µM | 7.32 µM | 2.37 µM | 16.4 µM | 136 to 138 °C | – | – | – | –
C[C@@H]1CC[C@H]2[C@@H](C)C(OCCOc3ccc(/C=C/S(=O)(=O)Nc4ccc(Cl)cc4)cc3)O[C@@H]3O[C@@]4(C)CC[C@@H]1[C@]32OO4 (stereo partly drawn) [Compound 3f, (E)-2-(4-(2-(10β-Dihydroartemisinoxy)ethoxy)phenyl)-N-(4-chlorophenyl)ethenesulfonamide] | – | – | – | – | – | – | – | 1.04 µM | 0.42 µM | 0.79 µM | 1.41 µM | 3.52 µM | 0.08 µM | 19.9 µM | 138 to 141 °C | – | – | – | –
C[C@@H]1CC[C@H]2[C@@H](C)C(OCCOc3ccc(/C=C/S(=O)(=O)Nc4ccccc4Cl)cc3)O[C@@H]3O[C@@]4(C)CC[C@@H]1[C@]32OO4 (stereo partly drawn) [Compound 3g, (E)-2-(4-(2-(10β-Dihydroartemisinoxy)ethoxy)phenyl)-N-(2-chlorophenyl)ethenesulfonamide] | – | – | – | – | – | – | – | 0.93 µM | 0.55 µM | 1.78 µM | 2.53 µM | 3.05 µM | 0.17 µM | 16.3 µM | 141 to 143 °C | – | – | – | –
C[C@@H]1CC[C@H]2[C@@H](C)C(OCCOc3ccc(/C=C/S(=O)(=O)Nc4c(Cl)cccc4Cl)cc3)O[C@@H]3O[C@@]4(C)CC[C@@H]1[C@]32OO4 (stereo partly drawn) [Compound 3h, (E)-2-(4-(2-(10β-Dihydroartemisinoxy)ethoxy)phenyl)-N-(2,6-dichlorophenyl)ethenesulfonamide] | – | – | – | – | – | – | – | 1.07 µM | 0.49 µM | 2.51 µM | 1.28 µM | 4.33 µM | 0.14 µM | 20.7 µM | 144 to 146 °C | – | – | – | –
C[C@@H]1CC[C@H]2[C@@H](C)C(OCCNC(=O)c3ccc(COc4ccc(/C=C/S(=O)(=O)Nc5ccccc5)cc4)cc3)O[C@@H]3O[C@@]4(C)CC[C@@H]1[C@]32OO4 (stereo partly drawn) [Compound 6a, (E)-N-(2-(10β-Dihydroartemisinoxy)ethyl)-4((4-(2-(N-phenylsulfamoyl)vinyl)phenoxy)methyl)benzamide] | – | – | – | – | – | – | – | 2.26 µM | 0.98 µM | 6.47 µM | 5.28 µM | 3.21 µM | 2.41 µM | 20 µM | 142 to 145 °C | – | – | – | –
C[C@@H]1CC[C@H]2[C@@H](C)C(OCCNC(=O)c3ccc(COc4ccc(/C=C/S(=O)(=O)Nc5ccc(OC(F)(F)F)cc5)cc4)cc3)O[C@@H]3O[C@@]4(C)CC[C@@H]1[C@]32OO4 (stereo partly drawn) [Compound 6c, (E)-N-(2-(10β-Dihydroartemisinoxy)ethyl)-4((4-(2-(N-(4-trifluoromethoxyphenyl)sulfamoyl)vinyl)phenoxy)methyl)benzamide] | – | – | – | – | – | – | – | 0.49 µM | 0.29 µM | 3.71 µM | 2.7 µM | 1.57 µM | 0.09 µM | 28.2 µM | – | – | – | – | –
C[C@H]1[C@@H](O)O[C@@H]2O[C@@]3(C)CC[C@H]4[C@H](C)CC[C@@H]1[C@@]24OO3 [DHA, dihydroartemisinin] | – | – | – | – | – | – | – | 9.8 µM | 5.6 µM | 15.8 µM | 12.4 µM | 10.1 µM | 5.29 µM | > 100 µM | – | – | – | – | –
